Reference: patent publication US20180036420A1, “METHODS FOR ENHANCING THE DELIVERY OF MOLECULES ACROSS THE BLOOD BRAIN BARRIER” (LAM Therapeutics, Inc., priority 2016, published 2018)

Key:
[1] = tested on: PI(3,5)P2 in H4 neuroglioma cells; test: Immunostaining of PI(3,5)P2 in H4 neuroglioma cells; assay type: cell-based, human; settings: after 24 h
Excerpt: (§1) PIKfyve produces the lipid products PI(3,5)P2 and PI5P, which in turn serve to establish membrane identity and control endolysosomal dynamics. Studies have shown that the PI(3,5)P2 depletion arising from inhibition of PIKfyve produces a swollen endolysosome phenotype. […] This phenotype was reversible, and cell lines reverted to normal appearance within 3-4 days after drug removal.

[2] = tested on: comprehensive panel of kinases (456 kinases); test: Kinase panel binding screen (456 kinases, PIKfyve not included); settings: screening concentration 1 μM
Excerpt: Next, apilimod was screened against a comprehensive panel of kinases (PIKfyve not included).

H4 neuroglioma cells = test: DIC imaging of endolysosomal (vacuole) phenotype in H4 neuroglioma cells; assay type: cell-based, human
Excerpt: FIG. 4: Left: DIC images of H4 transduced with either non-targeting shRNA (control) or hairpin targeted to the PIKFYVE gene (shPIKFYVE). Right: Viability of H4 cells after the induction of either control or PIKFYVE shRNA with doxycycline.
as §1

## Cc1cccc(/C=N/Nc2cc(N3CCOCC3)nc(OCCc3ccccn3)n2)c1 [apilimod]
[1]
  decrease of PI(3,5)P2: ~70%
[2]
  binding to kinases of the panel: did not bind to any of the 456 kinases tested
H4 neuroglioma cells; H4 neuroglioma cells, 100 nM apilimod, 24 hrs (FIG. 3)
  endolysosomal (vacuole) phenotype: striking swollen endolysosomal (vacuole) phenotype
H4 neuroglioma cells; after drug removal
  time to revert to normal appearance after drug removal: 3 to 4 days
